Laboratory results published in patent US20160101048A1, “+L-CARNOSINE ZINC FORMULATIONS AND METHODS OF USE” (priority 2014, published 2016).

Legend:
ulcer tissue = settings: chelate versus simple mixture; cited from earlier work
[1] = Particle size distribution of polymeric L-carnosine zinc; format: physicochemical; settings: L-carnosine zinc used in Comparative Example 1
Method: Step 2) Polymeric L-carnosine zinc with a particle size range of about 0.1 micron to about 85 microns, with a particle distribution such that 90% of the particles are 24.925 microns or smaller, 50% are 5.664 microns or smaller, and 10% are 0.826 or smaller, and the mean diameter was 9.878 microns was added to the hydrogel prepared in Step 1 to produce a composite polymeric hydrogel consisting of 150 mg L-carnosine zinc suspended in 5 ml of hydrogel.

N-(3-aminopropionyl)-L-histidinatozinc [L-carnosine zinc]
effectiveness compared with co-administration of a zinc salt together with L-carnosine (ulcer tissue): more effective than the co-administration of a zinc salt together with L-carnosine in a simple mixture | mean diameter [1]: 9.878 microns | particle distribution, 10% of the particles are this size or smaller [1]: ≤ 0.826 | particle distribution, 50% of the particles are this size or smaller [1]: ≤ 5.664 microns | particle distribution, 90% of the particles are this size or smaller [1]: ≤ 24.925 microns
